Experimental data as given in US5212072A, “Polypeptides complementary to peptides or proteins having an amino acid sequence or nucleotide coding sequence at least partially known and methods of design therefor” (Board of Regents, The University of Texas System, priority 1991, dated 1993).
One block for each molecule: values may come before it. Where no end group is shown, it is not given here.

Key:
female ICR mice = assay: Induction of catatonia in mice by i.c. injection of serum; type: in vivo; details: simultaneous i.c. injection 0.2 mg
Description: It is well known that large doses of opiate-like substances can induce a catatonic state in animals which is inhibited or reversed by treatment with the opiate antagonist naloxone. In analogy with the results in earlier examples, the ability of a peptide (qamma-ODNE) complementary to an opiate peptide, qamma-endorphin, to induce antibodies that have opiate properties was examined.
Gamma-ODNE (Example II) was conjugated to Keyhole Limpet Hemocyanin ([…]) and used with Freund's adjuvant to generate rabbit antibodies in a conventional manner (see Example 1F). Both normal and induced rabbit sera were injected intracerebroventicularly (i.c.) into female ICR mice.

[1] = target: T1, mouse adrenal tumor cell ACTH receptor (Mus musculus, UniProt Q64326); assay: Glucocorticoid hormone production by mouse adrenal tumor (Y-1) cells; type: cell-based; details: ACTH 10 microunits/well, 18 hrs
T1 construct: Duplicate cultures of mouse adrenal tumor (Y-1) cells in microtiter plates; endogenous in cells; host or cells: mouse adrenal tumor (Y-1) cells
T1 sequence (Q64326 whole entry): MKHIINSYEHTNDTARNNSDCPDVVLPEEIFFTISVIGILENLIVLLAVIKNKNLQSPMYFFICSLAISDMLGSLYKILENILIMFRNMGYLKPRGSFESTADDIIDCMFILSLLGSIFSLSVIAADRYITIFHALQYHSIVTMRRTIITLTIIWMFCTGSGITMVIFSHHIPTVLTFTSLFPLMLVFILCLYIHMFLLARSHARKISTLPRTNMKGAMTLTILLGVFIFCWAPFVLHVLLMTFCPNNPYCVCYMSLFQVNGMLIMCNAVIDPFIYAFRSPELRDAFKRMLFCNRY
T1 sequence (Q9D159 whole entry partner): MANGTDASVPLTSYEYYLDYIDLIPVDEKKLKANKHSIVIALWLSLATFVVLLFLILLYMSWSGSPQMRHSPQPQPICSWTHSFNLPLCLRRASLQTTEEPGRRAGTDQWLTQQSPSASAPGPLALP
Method: An induction of glucocorticoid hormone production by ACTH and anti-HTCA was found with cultured mammalian cells. Duplicate cultures of mouse adrenal tumor (Y-1) cells in microtiter plates were treated with culture media, ACTH (10 microunits/well) or various dilutions of the anti-HTCA.
^a Duplicate cultures of mouse adrenal (Y1) cells in microtiter plate
were treated with culture media, ACTH (10 microunits/well) or the
indicated dilutions of antibody to HTCA. After 18 hrs incubation at
37° in 4% CO2, replicate cultures were pooled and assayed for
glucocorticoid hormone production by a radioimmunoassay (RIA) for […]

HTCA = assay: Solid phase radiobinding assay for serum ACTH on HTCA-coated wells; type: binding; details: for Log10 Dilution at 50% inhibition: graphic interpolation
Chain of HTCA (as listed by the source): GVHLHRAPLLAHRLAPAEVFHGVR
Method: Complementary peptide (HTCA) was dissolved in phosphate buffered saline (PBS) at 1 mg/ml and 200 ul aliquots were placed in wells of a 96 well polyvinyl assay plate (Microtest III, Falcon Cat. #3911). HTCA was allowed to coat the wells overnight at 4° C. The coating solution was removed and the wells were washed three times with PBS. Radiolabeled ACTH (^125 I-ACTH, New England Nuclear NEX-65) was diluted into PBS containing 0.0005% TWEEN-20 so as to deliver 50 pg (or about 30,000 cpm) in a 20 ul volume.
Serum samples were prepared in a 96 well tissue culture plate by serial dilution of serum into PBS/TWEEN 20 to give a final volume of 180 ul/well. The serum samples were then transferred to the HTCA coated a ssay plate and allowed to incubate. Finally, 20 ul of ^125 I-ACTH solution was added, incubated, and the total sample of 200 ul was removed. After washing three times with PBS, the wells were cut from the plate and counted in a gamma counter.
Serum samples used in this study contained either 50 pg/ml or 500 pg/ml of ACTH added to fetal calf serum (FCS).

[2] = system: mouse adrenal tumor (Y-1) cells; assay: Binding of anti-HTCA to affixed mouse adrenal tumor (Y-1) cells; details: absorbency at 405 nM; FIG. 5
Method: Mouse adrenal tumor (Y-1) cells were affixed by glutaraldehyde in flat bottom wells of a microtiter plate. The affixed cells were then treated with rabbit anti-KLH or rabbit anti-HTCA alone or in the presence of several levels of ACTH. After washing, the microtiter wells were treated with goat antibody to rabbit immunoglobulin the goat antibody being coupled to the enzyme alkaline phosphatase. After washing away unbound antibody-phosphatase complex, p-nitrophenyl phosphate was added and the enzyme dependent development of absorbency at 405 nM was monitored. […] ACTH and anti-HTCA appeared competitive for the same binding site on the mouse adrenal tumor (Y-1) cells. Rabbit anti KLH had no effect (shaded region)

[3] = system: opiate receptors on NG108-15 cells; assay: Inhibition of 125I-beta-endorphin binding to NG108-15 cells; details: 125I-beta-endorphin 10^-11 M
Description: NG108-15 cells are known to contain receptors for beta-endorphin called opiate receptors. In addition to beta-endorphin, gamma-endorphin and several analogs of beta-endorphin bind to these opiate receptors. The peptide, gamma-ODNE, complementary to gamma-endorphin described in Example II was examined for its ability to inhibit the binding of ^125 I-beta-endorphin to opiate receptors on NG108-15 cells. Gamma-endorphin is a fragment of the larger peptide beta-endorphin.
Seventy percent of the total binding was specific by conventional criteria.
For this experiment, ^1251 -beta-endorphin was preincubated 30 minutes with various amounts of the complementary peptide, gamma-ODNE, before a 30 minute (37° C.) incubation with NG108-15 cells in microtiter wells. After the incubation, cells were washed 3 times and cell associated radioactivity wad determined with a Packard Multi-Prias gamma counter.

bovine gamma-endorphin = target: T2, bovine gamma-endorphin (Bos taurus, UniProt P01190); assay: ELISA binding of gamma-endorphin to coated wells; details: gamma-odne 40 ug/well vs insulin or BSA; absorbance 405 nm; FIG. 7
T2 construct: purchased Boehringer Mannheim (Indianapolis, Ind.); host or cells: chemical synthesis
Method: Synthetic bovine gamma-endorphin was obtained from Boehringer Mannheim (Indianapolis, Ind.) and rabbit antibody for synthetic gamma-endo was obtained from Accurate Biochemicals (Westbury, N.Y.).
The wells of a 96-well round-bottomed microtiter plate were coated (by the procedure described in Example 1B) with gamma-odne (40 ug/well), insulin (20U/well) or bovine serum albumin (BSA,200 ug/well . Varying concentrations of gamma-endorphin (as shown on the abscissa in FIG. 7) were incubated in the coated wells for 1 hr, after which the plates were thrice washed with PBS-Tween buffer. The wells were then treated with rabbit antibody for gamma-endorphin, washed, and then treated with goat antibody against rabbit immunoglobulin the goat antibody being conjugated to alkaline phosphatase. After washing away unbound goat antibody conjugate, the bound alkaline phosphatase activity was measured with p-nitrophenylphosphate as earlier described. The results of the above manipulations are shown in FIG. 7 where the extent of absorbance at 405 nm reflects the degree of gamma-endorphin binding to wells coated with gamma-odne, insulin or BSA. […] The shaded area in FIG. 7 represents the extent of gamma-endorphin binding in the presence of soluble excess of gamma-odne. Thus it is shown that a second pair of complementary peptides interacts in a manner showing affinity and apparent congruence.

Molecule: C=CCN1CC[C@]23c4c5ccc(O)c4O[C@H]2C(=O)CC[C@@]3(O)[C@H]1C5 [naloxone]
effect on serum-induced catatonia (female ICR mice): reversed

Corticosterone equivalents, Experiment 1 [1]: 1.08 µg/mL
Corticosterone equivalents, Experiment 2 [1]: 1.42 µg/mL
% Inhibition of Specific Binding (HTCA; 50 pg/ml ACTH in FCS, Log10 Dilution -0.5): 73%
% Inhibition of Specific Binding (HTCA; 50 pg/ml ACTH in FCS, Log10 Dilution -1.0): 40%
% Inhibition of Specific Binding (HTCA; 50 pg/ml ACTH in FCS, Log10 Dilution -1.5): 44%
% Inhibition of Specific Binding (HTCA; 50 pg/ml ACTH in FCS, Log10 Dilution -2.0): 9%
% Inhibition of Specific Binding (HTCA; 50 pg/ml ACTH in FCS, Log10 Dilution -2.5): 1%
% Inhibition of Specific Binding (HTCA; 50 pg/ml ACTH in FCS, Log10 Dilution -3.0): 0%
% Inhibition of Specific Binding (HTCA; 50 pg/ml ACTH in FCS, Log10 Dilution -3.5): 0%
Log10 Dilution at 50% inhibition (HTCA; 50 pg/ml serum sample): -1.1
% Inhibition of Specific Binding (HTCA; 500 pg/ml ACTH in FCS, Log10 Dilution -0.5): 90%
% Inhibition of Specific Binding (HTCA; 500 pg/ml ACTH in FCS, Log10 Dilution -1.0): 77%
% Inhibition of Specific Binding (HTCA; 500 pg/ml ACTH in FCS, Log10 Dilution -1.5): 57%
% Inhibition of Specific Binding (HTCA; 500 pg/ml ACTH in FCS, Log10 Dilution -2.0): 53%
% Inhibition of Specific Binding (HTCA; 500 pg/ml ACTH in FCS, Log10 Dilution -2.5): 35%
% Inhibition of Specific Binding (HTCA; 500 pg/ml ACTH in FCS, Log10 Dilution -3.0): 32%
% Inhibition of Specific Binding (HTCA; 500 pg/ml ACTH in FCS, Log10 Dilution -3.5): 20%
Log10 Dilution at 50% inhibition (HTCA; 500 pg/ml serum sample): -2.0
Molecule: ACTH: Synthetic ACTH, fragment 1-24, from Organon; unlabelled ACTH competitor in binding assays
effect on binding of anti-HTCA to affixed Y-1 cells [2]: blocked binding of the anti-HTCA in a dose dependent manner

Molecule: QRDKGRLALLGGHEPAV [gamma-odne, H2 N--gln--arg--asp--lys--gly--arg--leu--ala--leu--leu--gly--gly--his--glu--pro--ala--val--COOH]
% Inhibition of Specific 125I-beta-endorphin ([3]; 10^-4 M): 75.0 ± 0.6%
% Inhibition of Specific 125I-beta-endorphin ([3]; 10^-5 M): 36.0 ± 2.1%
% Inhibition of Specific 125I-beta-endorphin ([3]; 10^-6 M, 30 min preincubation): 24.7 ± 3.9%
gamma-endorphin binding to coated wells (in words) (bovine gamma-endorphin): significantly bound
